{
  "source": "patent US7919577B2",
  "about": "“Adrenocorticotropic hormone analogs and related methods” (Colorado Seminary, priority 2004, dated 2011)",
  "key": {"[1]": {"molecular_target": "T1, adrenal ACTH receptors such as MC-2R (explanted adrenal membrane) (Mus musculus, UniProt Q64326+Q9D159)", "T1 construct": "the adrenal halves were macerated or otherwise dissociated using Dounce Homogenizer to form a membrane fraction; from tissue; host or cells: mouse adrenal glands (explanted, homogenised to a membrane fraction)", "T1 sequence (Q64326 whole entry)": "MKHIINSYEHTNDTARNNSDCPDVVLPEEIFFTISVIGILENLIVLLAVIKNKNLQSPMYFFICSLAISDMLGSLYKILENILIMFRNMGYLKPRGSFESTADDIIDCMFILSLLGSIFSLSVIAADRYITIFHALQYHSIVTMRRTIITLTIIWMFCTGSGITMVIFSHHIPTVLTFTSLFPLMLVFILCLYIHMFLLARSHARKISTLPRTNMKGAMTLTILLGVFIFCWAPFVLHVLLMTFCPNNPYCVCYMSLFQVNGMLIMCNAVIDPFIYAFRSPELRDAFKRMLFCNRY", "T1 sequence (Q9D159 whole entry)": "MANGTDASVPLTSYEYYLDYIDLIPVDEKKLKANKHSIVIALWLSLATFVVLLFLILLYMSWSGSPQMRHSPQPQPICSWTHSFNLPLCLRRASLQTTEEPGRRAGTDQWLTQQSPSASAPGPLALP", "assay": "in vitro Serum-free Adrenal Competitive Binding Assay (Example 3)", "settings": "cold peptide at 10 nM, 100 nM, 1000 nM; CPM; FIG. 3", "from_the_text": "ACTH analog compounds that bind to adrenal membrane with a greater affinity than endogenous unmodified ACTH, and are able to displace unmodified ACTH can be identified using an in vitro Serum-free Adrenal Competitive Binding Assay (Example 3). […] A higher CPM level indicates the presence of greater amounts of the radiolabelled compound. […] Column 220 indicates the level of radio-labeled unmodified mACTH(1-24) detected after combining the explanted adrenal membrane with only the radio-labeled mACTH(1-24) for 2 hours (no competitive binding). Columns 230, 240, and 250 show the results of competitive binding assays for binding of non-radio-labeled (“cold”) mACTH(1-24) to displace the radio-labeled mACTH(1-24) from the explanted adrenal membrane (measured in column 220) by competitive binding to receptors such as MC-2R on the adrenal membrane. […]\nACTH analogs with the ability to bind adrenal receptors with a greater affinity than compounds with known adrenal binding activity (preferably ACTH) can also be identified by performing an in vitro Adrenal Competitive Binding Assay, whereby measurement of the reduction in the amount of the radiolabelled adrenal-binding compound (e.g., ACTH) is measured at various concentrations of non-radio-labeled ACTH analog test compound in a medium containing explanted adrenal membrane. […]"}, "[2]": {"tested_on": "explanted mouse adrenal membrane (adrenal halves)", "assay": "in vitro Serum-free Adrenal Inhibition Assay (Example 4)", "format": "cell-based", "settings": "FIG. 4", "experimental": "A series of separate in vitro Serum-Free Adrenal Corticosteroid Inhibition Assay were performed to identify ACTH analogs that inhibit ACTH-induced adrenal hormone production in vitro. The concentration of corticosterone was measured according to the procedure of Example 4 in a serum-free culture medium containing explanted adrenal membrane and unmodified ACTH, AT814 ACTH analog (SEQ ID NO:20), or a combination of ACTH and AT814 at 100 ng/mL each. […] Corticosterone levels were taken at 2.0 hours after the adrenal membrane was placed in the serum free M199 medium, and each corticosterone level in Table 5 is an average of five samples.\nThe in vitro Serum-free Adrenal Inhibition Assay was performed according the following method. First, adrenals were removed from mice, dissected free of fat, and cut in half. See Costa, J L, et al., “Mutational analysis of evolutionarily conserved ACTH residues,” Gen Comp Endocrinol. 136:12-16 (2004); and Weber, M M, et al., “Postnatal overexpression of insulin-like growth factor II in transgenic mice is associated with adrenocortical hyperplasia and enhanced steroidogenesis,” Endocrinology 140:1537-1543 (1999), incorporated herein by reference.\nSecond, each adrenal half was placed into an individual well of a 4-well dish, one dish per mouse. Adrenal halves were incubated at 5% CO2, 37° C., in 0.5 ml serum-free medium (M199; Invitrogen) for 30 minutes to equilibrate.\nThird, medium was removed and replaced by 0.5 ml M199 containing ACTH, AT814, or both, at 100 ng/ml each; controls had no peptides added.\nFourth, after 2 hours of incubation, the medium was removed, pooled for all four halves from each mouse, and assayed by corticosterone using standard RIA methods. corticosterone was determined by competitive radioimmunoassay (^125I RIA kit; ICN, Costa Mesa, Calif.) according to the manufacturer's recommendations. One microliter of serum was used per assay sample. Samples were run in duplicates."}},
  "note": "No end group written: not given here.",
  "data": [
    {"substance": "N-Ser^1-Tyr-Ser-Met-Glu^5-His-Phe-Arg-Trp-Gly^10-Lys-Pro-Val-Gly-Lys^15-Arg-Ala-Ala-Trp-Val^20-Lys-Val-Tyr-Pro-Ac (SYSMEHFRWGKPVGKRAAWVKVYP; not fully specified; printed as N-Ser1-Tyr-Ser-Met-Glu5-His-Phe-Arg-Trp-Gly10-Lys-Pro-Val-Gly-Lys15-Arg-Ala-Ala-Trp-Val20-Lys-Val-Tyr-Pro-Ac) [AT814]", "values": [
      {"measurement": "displacement of radio-labeled mACTH(1-24) from explanted adrenal membrane", "setting": "[1]", "result": "displacement of the radio-labeled mACTH(1-24)"},
      {"measurement": "corticosterone induction by analog alone", "setting": "[2]; AT814 alone in M199 serum-free medium", "result": "only a negligible amount of corticosterone induction"},
      {"measurement": "reduction of corticosterone induction compared to unmodified ACTH alone", "setting": "[2]; equal amounts of AT814 and unmodified ACTH", "result": "about 65%"}
    ]}
  ]
}
